Source: PubChem BioAssay (NCI)
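Step 1: Grow cells in 96-well plates. Step 2: Expose to compound for 48 hours at 5 concentrations. Step 3: Interpolate endpoints linearly; if unreached, use highest concentration. GI50 marks 50% less growth. The concentration for full growth arrest is given as TGI.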

Key:
Test in all cases: NCI tumour cell line growth inhibition, 48 h
HCT-116 colon = test system: HCT-116 colon
SF-295 CNS = test system: SF-295 CNS
ACHN renal = test system: ACHN renal
SR leukemia = test system: SR leukemia
M14 melanoma = test system: M14 melanoma
HCC-2998 colon = test system: HCC-2998 colon
BT-549 breast = test system: BT-549 breast
NCI-H522 lung = test system: NCI-H522 lung
HOP-92 NSCLC = test system: HOP-92 NSCLC
U251 CNS = test system: U251 CNS

Row | Compound | GI50 (HCT-116 colon) [µM] | TGI (HCT-116 colon) [µM] | GI50 (SF-295 CNS) [µM] | TGI (SF-295 CNS) [µM] | GI50 (ACHN renal) [µM] | TGI (ACHN renal) [µM] | GI50 (SR leukemia) [µM] | TGI (SR leukemia) [µM] | GI50 (M14 melanoma) [µM] | TGI (M14 melanoma) [µM] | GI50 (HCC-2998 colon) [µM] | TGI (HCC-2998 colon) [µM] | GI50 (BT-549 breast) [µM] | TGI (BT-549 breast) [µM] | GI50 (NCI-H522 lung) [µM] | TGI (NCI-H522 lung) [µM] | GI50 (HOP-92 NSCLC) [µM] | TGI (HOP-92 NSCLC) [µM] | GI50 (U251 CNS) [µM] | TGI (U251 CNS) [µM]
1 | Cc1ccc(C(=O)NC2CCC2)cc1-c1ccc(C(=O)NCC2CC2)cc1 | > 25 | > 25 | > 25 | > 25 | > 25 | > 25 | > 25 | > 25 | > 25 | > 25 | > 25 | > 25 | > 25 | > 25 | > 25 | > 25 | > 21.3 | > 25 | > 25 | > 25
2 | Nc1c(C(=O)c2cccc(C#CCO)c2)cnn1-c1ccc(F)cc1 | > 25 | > 25 | > 25 | > 25 | > 25 | > 25 | > 25 | > 25 | > 25 | > 25 | > 25 | > 25 | > 25 | > 25 | > 25 | > 25 | > 13.2 | > 25 | > 25 | > 25
3 | Cc1ccc(-c2nc3nc(-c4ccccc4)nc(N4CCNCC4)c3o2)cc1 | 0.185 | 0.337 | 0.589 | 1.19 | 0.495 | 1.07 | 0.223 | 0.611 | 1.77 | 3.25 | 1.4 | 2.86 | 1.69 | 3.13 | 0.745 | 2.26 | 1.48 | 3.13 | 0.181 | 0.338
4 | C#CCNCCN1C(=O)c2ccc3c4c(ccc(c24)C1=O)C(=O)N(CCNCC#C)C3=O | 1.75 | 11.1 | 2.15 | 15 | 2.63 | 9.8 | 4.53 | 29.8 | 5.52 | 12.6 | 2.49 | 10 | 7.27 | 14.7 | 3.98 | 10.9 | 7.39 | 22.9 | 3.3 | 10.9
5 | C=C1CC[C@@H]2[C@](C)(COC(C)=O)[C@H](OC(C)=O)CC[C@@]2(C)[C@@H]1CC(Nc1ccc(S(=O)(=O)Nc2ccc(Cl)nn2)cc1)C1=CCOC1=O (stereo not given in full) | 1.08 | 2.32 | 3.28 | 12.6 | 1.68 | 3.32 | 1.35 | 8.1 | 1.45 | 3.41 | 1.84 | 3.86 | 1.58 | 3.14 | 0.754 | 2.1 | 2.7 | 7.89 | 1.68 | 3.05
6 | COc1ccc(C2=C(c3ccc(OC)c(OC)c3)C(=O)N3CCCC3C2)cc1 (stereo not given) | 9.64 | > 100 | 29.2 | > 100 | 34 | > 100 | 3.02 | 12.8 | 35.9 | > 100 | 53.6 | > 100 | > 71.2 | > 100 | 15.7 | > 100 | 41.3 | > 100 | 7.47 | > 100
7 | CCSc1nc(SCC)c2c(-c3ccc(OC)c(OC)c3)c(C#N)c(SCC)nc2n1 | 30.3 | > 100 | 12.9 | 39.9 | 17.8 | 38 | 26.5 | > 100 | 56.2 | > 100 | 21 | 49.2 | 23.5 | > 100 | 41.1 | > 100 | 23.2 | 76.7 | 22.7 | 48.3
8 | O1[As]2O[As]3O[As]1O[As](O2)O3 | 1.27 | 2.8 | 2.63 | 9 | 2.54 | 11.2 | 0.295 | 3.7 | 1.46 | 4.21 | 1.65 | 3.6 | 0.278 | 0.903 | 0.256 | 1.03 | 0.238 | 0.897 | 0.294 | 1.25
